Consider 29 molecules from patent publication US20040156869A1, “2-substituted quinazolin-4-ylamine analogues” (Neurogen Corporation, priority 2002, published 2004).

In one assay the target is human capsaicin receptor (VR1) (Homo sapiens, UniProt Q8NER1). Put plainly: Capsaicin receptor binding assay ([3H]RTX competition, VR1-transfected HEK293 membranes).
Sequence of human capsaicin receptor (VR1) (Q8NER1 whole entry): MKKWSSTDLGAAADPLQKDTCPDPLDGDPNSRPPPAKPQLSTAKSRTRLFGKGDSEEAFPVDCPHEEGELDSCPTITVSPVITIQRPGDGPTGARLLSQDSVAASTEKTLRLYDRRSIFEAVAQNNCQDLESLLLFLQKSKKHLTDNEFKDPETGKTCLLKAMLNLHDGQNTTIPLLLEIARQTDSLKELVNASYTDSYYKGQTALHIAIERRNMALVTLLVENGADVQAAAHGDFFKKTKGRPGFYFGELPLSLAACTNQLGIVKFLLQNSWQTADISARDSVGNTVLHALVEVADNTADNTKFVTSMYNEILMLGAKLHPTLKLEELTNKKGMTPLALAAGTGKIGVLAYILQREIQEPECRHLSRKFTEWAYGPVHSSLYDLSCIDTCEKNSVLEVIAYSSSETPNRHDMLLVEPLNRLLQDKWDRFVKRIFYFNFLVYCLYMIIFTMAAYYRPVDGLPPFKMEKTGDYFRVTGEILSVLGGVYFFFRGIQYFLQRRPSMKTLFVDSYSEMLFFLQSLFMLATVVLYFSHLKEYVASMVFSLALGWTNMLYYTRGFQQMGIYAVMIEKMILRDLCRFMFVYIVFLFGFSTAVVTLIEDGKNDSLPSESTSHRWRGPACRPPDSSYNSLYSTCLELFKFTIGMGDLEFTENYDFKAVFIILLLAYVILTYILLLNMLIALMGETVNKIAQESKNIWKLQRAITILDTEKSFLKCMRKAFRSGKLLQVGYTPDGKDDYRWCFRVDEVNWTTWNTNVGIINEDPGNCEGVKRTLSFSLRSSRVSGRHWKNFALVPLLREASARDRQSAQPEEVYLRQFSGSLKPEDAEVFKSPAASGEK
Conditions: not given
Regarding `Cc1cccnc1-c1ccc2c(Nc3ccc(C(F)(F)F)cc3)nc(CN3CCCC(C)(C)C3)nc2c1` [Compound 731, [2-(3,3-Dimethyl-piperidin-1-ylmethyl)-7-(3-methyl-pyridin-2-yl)-quinazolin-4-yl]-(4-trifluoromethyl-phenyl)-amine], the Ki was under 1000 nM.

`Cc1cccnc1-c1ccc2c(Nc3ccc(C(F)(F)F)cc3)nc(CN3CC[C@@H](O)C3)nc2c1` [Compound 732, (R)-1-[7-(3-Methyl-pyridin-2-yl)-4-(4-trifluoromethyl-phenylamino)-quinazolin-2-ylmethyl]-pyrrolidin-3-ol] showed a Ki of under 1000 nM.

As for `Cc1cccnc1-c1ccc2c(Nc3ccc(C(F)(F)F)cc3)nc(CN3CC[C@@H](CO)C3)nc2c1` [Compound 733, (R)-{1-[7-(3-Methyl-pyridin-2-yl)-4-(4-trifluoromethyl-phenylamino)-quinazolin-ylmethyl]-pyrrolidin-3-yl}-methanol], the Ki is under 1000 nM.

The molecule `Cc1cccnc1-c1ccc2c(Nc3ccc(C(F)(F)F)cc3)nc(CN3CC[C@H](CO)C3)nc2c1` [Compound 734, (S)-{1-[7-(3-Methyl-pyridin-2-yl)-4-(4-trifluoromethyl-phenylamino)-quinazolin-2-ylmethyl]-pyrrolidin-3-yl}-methanol] registered a Ki of under 1000 nM.

Molecule `Cc1cccnc1-c1ccc2c(Nc3ccc(C(F)(F)F)cc3)nc(C3CNC3)nc2n1` [Compound 735, [2-Azetidin-3-yl-7-(3-methyl-pyridin-2-yl)-pyrido[2,3-d]pyrimidin-4-yl]-(4-trifluoromethyl-phenyl)-amine] returned a Ki of under 1000 nM.

In the case of `O=C(O)C1CCCCN1Cc1nc(Nc2ccc(C(F)(F)F)cc2)c2ccc(-c3ncccc3C(F)(F)F)cc2n1` (centres unmarked) [Compound 737, 1-[4-(4-Trifluoromethyl-phenylamino)-7-(3-trifluoromethyl-pyridin-2-yl)-quinazolin-2-ylmethyl]-piperidine-2-carboxylic acid], the Ki was under 1000 nM.

`Cc1cccnc1-c1ccc2c(Nc3ccc(C(F)(F)F)cc3)nc(CN3C[C@@H](C)O[C@@H](C)C3)nc2n1` [Compound 738, [2-(2,6-Dimethyl-morpholin-4-ylmethyl)-7-(3-methyl-pyridin-2-yl)-pyrido[2,3-d]pyrimidin-4-yl]-(4-trifluoromethyl-phenyl)-amine (cis)] yielded an inhibitory constant (Ki) of under 1000 nM.

Molecule `CC1(C)CN(Cc2nc(Nc3ccc(C(F)(F)F)cc3)c3ccc(-c4ncccc4C(F)(F)F)cc3n2)CCO1` [Compound 739, [2-(2,2-Dimethyl-morpholin-4-ylmethyl)-7-(3-trifluoromethyl-pyridin-2-yl)-quinazolin-4-yl]-(4-trifluoromethyl-phenyl)-amine] came in with a Ki of under 1000 nM.

Consider `CC1(C)CN(Cc2nc(Nc3ccc(C(F)(F)F)cc3)c3ccc(-c4ncccc4Cl)cc3n2)CCO1` [Compound 740, [7-(3-Chloro-pyridin-2-yl)-2-(2,2-dimethyl-morpholin-4-ylmethyl)-quinazolin-4-yl]-(4-trifluoromethyl-phenyl)-amine], for which the Ki was under 1000 nM.

Regarding `CC1(C)CN(Cc2nc(Nc3ccc(C4CC4)cc3)c3ccc(-c4ncccc4C(F)(F)F)cc3n2)CCO1` [Compound 741, (4-Cyclopropyl-phenyl)-[2-(2,2-dimethyl-morpholin-4-ylmethyl)-7-(3-trifluoromethyl-pyridin-2-yl)-quinazolin-4-yl]-amine], the Ki was under 1000 nM.

In turn, `CC1(C)CN(Cc2nc(Nc3ccc(C(F)(F)F)cc3)c3ncc(-c4ncccc4C(F)(F)F)cc3n2)CCO1` [Compound 742, [2-(2,2-Dimethyl-morpholin-4-ylmethyl)-7-(3-trifluoromethyl-pyridin-2-yl)-pyrido[3,2-d]pyrimidin-4-yl]-(4-trifluoromethyl-phenyl)-amine] gave a Ki of under 1000 nM.

As for `COCCN(CCOC)Cc1nc(Nc2ccc(C(F)(F)F)cc2)c2ccc(-c3ncccc3C)nc2n1` [Compound 743, [2-{[Bis-(2-methoxy-ethyl)-amino]-methyl}-7-(3-methyl-pyridin-2-yl)-pyrido[2,3-d]pyrimidin-4-yl]-(4-trifluoromethyl-phenyl)-amine], the Ki is under 1000 nM.

Take `CC(C)(C)c1ccc(Nc2nc(CN3CCC[C@H]3C(=O)O)nc3cc(-c4ncccc4C(F)(F)F)ccc23)cc1` [Compound 744, (S)-1-[4-(4-tert-Butyl-phenylamino)-7-(3-trifluoromethyl-pyridin-2-yl)-quinazolin-2-ylmethyl]-pyrrolidine-2-carboxylic acid]: the Ki is under 1000 nM.

Molecule `CC(C)(C)c1ccc(Nc2nc(CN3CCC[C@@H]3C(=O)O)nc3cc(-c4ncccc4C(F)(F)F)ccc23)cc1` [Compound 745, (R)-1-[4-(4-tert-Butyl-phenylamino)-7-(3-trifluoromethyl-pyridin-2-yl)-quinazolin-2-ylmethyl]-pyrrolidine-2-carboxylic acid] showed a Ki of under 1000 nM.

On to `Cc1cccnc1-c1ccc2c(Nc3ccc(C(F)(F)F)cc3)nc(CN3CCCC(C)(C)C3)nc2n1` [Compound 746, [2-(3,3-Dimethyl-piperidin-1-ylmethyl)-7-(3-methyl-pyridin-2-yl)-pyrido[2,3-d]pyrimidin-4-yl]-(4-trifluoromethyl-phenyl)-amine], for which the Ki was under 1000 nM.

As to `Cc1cccnc1-c1ccc2c(Nc3ccc(C(F)(F)F)cc3)nc(CN3CCC[C@H]3C(=O)O)nc2n1` [Compound 747, (S)-1-[7-(3-Methyl-pyridin-2-yl)-4-(4-trifluoromethyl-phenylamino)-pyrido[2,3-d]pyrimidin-2-ylmethyl]-pyrrolidine-2-carboxylic acid], the Ki is under 1000 nM.

`C[C@@H]1CN(Cc2nc(Nc3ccc(C(F)(F)F)cc3)c3ccc(-c4ncccc4C(F)(F)F)nc3n2)C[C@H](C)O1` [Compound 748, [2-(2,6-Dimethyl-morpholin-4-ylmethyl)-7-(3-trifluoromethyl-pyridin-2-yl)-pyrido[2,3-d]pyrimidin-4-yl]-(4-trifluoromethyl-phenyl)-amine (cis)] yielded a Ki of under 1000 nM.

For `COCCN(CCOC)Cc1nc(Nc2ccc(C(F)(F)F)cc2)c2ccc(-c3ncccc3C(F)(F)F)nc2n1` [Compound 749, [2-{[Bis-(2-methoxy-ethyl)-amino]-methyl}-7-(3-trifluoromethyl-pyridin-2-yl)-pyrido[2,3-d]pyrimidin-4-yl]-(4-trifluoromethyl-phenyl)-amine], the Ki was under 1000 nM.

Take `CC1(C)CCCN(Cc2nc(Nc3ccc(C(F)(F)F)cc3)c3ccc(-c4ncccc4C(F)(F)F)nc3n2)C1` [Compound 750, [2-(3,3-Dimethyl-piperidin-1-ylmethyl)-7-(3-trifluoromethyl-pyridin-2-yl)-pyrido[2,3-d]pyrimidin-4-yl]-(4-trifluoromethyl-phenyl)-amine]: the Ki was under 1000 nM.

Turning to `O=C(O)[C@@H]1CCCN1Cc1nc(Nc2ccc(C(F)(F)F)cc2)c2ccc(-c3ncccc3C(F)(F)F)nc2n1` [Compound 751, (S)-1-[4-(4-Trifluoromethyl-phenylamino)-7-(3-trifluoromethyl-pyridin-2-yl)-pyrido[2,3-d]pyrimidin-2-ylmethyl]-pyrrolidine-2-carboxylic acid], the Ki is under 1000 nM.

Molecule `CC(C)(C)c1ccc(Nc2nc(CN3CCC[C@H]3C(=O)O)nc3cc(-c4ncccc4C(F)(F)F)cnc23)cc1` [Compound 752, (S)-1-[4-(4-tert-Butyl-phenylamino)-7-(3-trifluoromethyl-pyridin-2-yl)-pyrido[3,2-d]pyrimidin-2-ylmethyl]-pyrrolidine-2-carboxylic acid] gave a Ki of under 1000 nM.

Molecule `CCCN(CCO)Cc1nc(Nc2ccc(C(C)(C)C)cc2)c2ccc(-c3ncccc3C(F)(F)F)cc2n1` [Compound 754, 2-{[4-(4-tert-Butyl-phenylamino)-7-(3-trifluoromethyl-pyridin-2-yl)-quinazolin-2-ylmethyl]-propyl-amino}-ethanol] registered a Ki of under 1000 nM.

Consider `CC(C)(C)c1ccc(Nc2nc(CN3CCCC3CO)nc3cc(-c4ncccc4C(F)(F)F)ccc23)cc1` (centres unmarked) [Compound 755, {1-[4-(4-tert-Butyl-phenylamino)-7-(3-trifluoromethyl-pyridin-2-yl)-quinazolin-2-ylmethyl]-pyrrolidin-2-yl}-methanol], for which the Ki is under 1000 nM.

As to `O=S1(=O)CCCCN1Cc1nc(Nc2ccc(C(F)(F)F)cc2)c2ccc(-c3ncccc3C(F)(F)F)cc2n1` [Compound 756, [2-(1,1-Dioxo-1λ^6-[1,2]thiazinan-2-ylmethyl)-7-(3-trifluoromethyl-pyridin-2-yl)-quinazolin-4-yl]-(4-trifluorornethyl-phenyl)-amine], the Ki is under 1000 nM.

`C[C@@H]1CN(Cc2nc(Nc3ccc(C(C)(C)C)cc3)c3ccc(-c4ncccc4C(F)(F)F)nc3n2)C[C@H](C)O1` [Compound 757, (4-tert-Butyl-phenyl)-[2-(2,6-dimethyl-morpholin-4-ylmethyl)-7-(3-trifluoromethyl-pyridin-2-yl)-pyrido[2,3-d]pyrimidin-4-yl]-amine (cis)] displayed a Ki of under 1000 nM.

As for `CC(C)(C)c1ccc(Nc2nc(CN3CCC[C@H]3C(=O)O)nc3nc(-c4ncccc4C(F)(F)F)ccc23)cc1` [Compound 758, (S)-1-[4-(4-tert-Butyl-phenylamino)-7-(3-trifluoromethyl-pyridin-2-yl)-pyrido[2,3-d]pyrimidin-2-ylmethyl]-pyrrolidine-2-carboxylic acid], the Ki was under 1000 nM.

`O=C(c1nc(Nc2ccc(C(F)(F)F)cc2)c2ccc(-c3ncccc3C(F)(F)F)cc2n1)N1CCCCC1` [Compound 759, Piperidin-1-yl-[4-(4-trifluoromethyl-phenylamino)-7-(3-trifluoromethyl-pyridin-2-yl)-quinazolin-2-yl]I-methanone]: the Ki is under 1000 nM.

Take `CC(C)CCNC(=O)c1nc(Nc2ccc(C(F)(F)F)cc2)c2ccc(-c3ncccc3C(F)(F)F)cc2n1` [Compound 761, 4-(4-Trifluoromethyl-phenylamino)-7-(3-trifluoromethyl-pyridin-2-yl)-quinazoline-2-carboxylic acid (3-methyl-butyl)-amide]: the Ki is under 1000 nM.

Still in this assay, the particulars now being: Table III; * = Ki 1 micromolar or less.
The molecule `CCOC(=O)C1CCN(CCc2nc(Nc3ccc(C(F)(F)F)cc3)c3ccc(-c4ncccc4C(F)(F)F)cc3n2)CC1` [Compound 736, 1-{2-[4-(4-Trifluoromethyl-phenylamino)-7-(3-trifluoromethyl-pyridin-2-yl)-quinazolin-2-yl]-ethyl}-piperidine-4-carboxylic acid ethyl ester] came in with a Ki of under 1000 nM.
